Results as given in US11896589B2, “Diazinyl amino acridines and medical uses thereof” (MyCural Therapeutics AB, priority 2018, dated 2024).

Tests used:
[1] = biological target: T1, endogenous MYC:MAX in MDA-MB231 cells (Homo sapiens, UniProt P01106); test: Assay 3B CoIP of endogenous MAX with MYC; format: cell-based
T1 construct: endogenous in cells; host or cells: MDA-MB231
Protocol: (§1) FIG. 4: A) Endogenous MYC:MAX (upper panel) and FRA1:JUN (lower panel) interactions as visualized as fluorescent red dots by isPLA. Nuclei were counterstained with DAPI (blue). Cells were treated with 10 μM of indicated compounds for 16 hours and subjected to isPLA using pairs of MYC and MAX and of FRA1 and JUN antibodies, respectively. As negative control, primary antibody pairs but only one oligo-conjugated secondary antibody was used. B) Quantification of MYC:MAX and C) FRA1:JUN isPLA, representing an average number of nuclear dots per cell from three microscopic fields normalized to corresponding values for DMSO-treated cells. […] 1st-4th lanes from top; coimmunoprecipitated MAX, immunoprecipitated MYC, total levels of MAX and ACTIN, respectively, as determined by western blot analysis. E) MYC:MAX GLuc assay in cells. […] 24 hours later cells were treated with […] of Example 1, Example 2 and control compound for 16 hours and thereafter analyzed in a dual luciferase assay. The ratio of Gaussia/Firefly luciferase luminescence were calculated and normalized to DMSO-treated cells.
Coimmunoprecipitation of endogenous MYC:MAX proteins were essentially carried out as in Bahram, F. et al. Interferon-gamma-induced p27KIP1 binds to and targets MYC for proteasome-mediated degradation. Oncotarget 7, 2837-2854, doi:10.18632/oncotarget.6693 (2016). […]

[2] = tested on: MYC null (H015.19) Rat1 fibroblast cells; test: Assay 5B Tgr cell growth (WST-1), MYC null; format: cell-based, rat; conditions: 48 hours
Protocol: (§2) FIG. 6: A-B) Neuroblastoma cell lines with (SK-N-DZ, Kelly and IMR-32) or without (SK-N-F1, SK-N-RA and SK-N-AS) MYCN-amplification were exposed to different concentrations of Example 1, Example 2 and control compound, respectively, for 48 hours. Cell growth and viability was estimated by measuring metabolic activity. C) Growth of TGR-1 (wt), HO15.19 (MYC knockout) and HOmyc3 (MYC reconstituted HO15.19) Rat1 fibroblasts, as measured by the WST-1 assay after treatment with Example 1. Data are shown as mean±standard deviation of 3-5 biological experiments, each with 3 technical repeats.
Assay 5B: Tgr Cell Growth
Tgr cells were treated at 37° C. and 5% CO2 at 48 hours with Example and Example 2. H015.19 is a MYC null rat cell line derived from Tgr1 (parental cells), while H0Myc3 cells were generated from the MYC null cells by reconstitution of a MYC gene(Mateyak, M. K., Obaya, A. J., Adachi, S. & Sedivy, J. M. Phenotypes of c-Myc-deficient rat fibroblasts isolated by targeted homologous recombination. Cell Growth Differ 8, 1039-1048 (1997)).

[3] = tested on: non-MYCN-amplified neuroblastoma cells (SK-N-F1, SK-N-RA, SK-N-AS); test: Assay 5A neuroblastoma cell growth (WST-1), non-MYCN-amplified; format: cell-based
Protocol: as §2
Assay 5A: Neuroblastoma Cell Growth
Neuroblastoma cell lines with (SK-N-DZ, Kelly and IMR-32) or without (SK-N-F1, SK-N-RA and SK-N-AS) MYCN-amplification were exposed to different concentrations of example compounds for 48 hours. Cell growth and viability was estimated by measuring metabolic activity by incubating cells in triplicates with WST-1 (Roche) in medium at 37° C. and 5% CO2 for 2 hours after which absorbance was measured with an Omega Fluostar (BMG Labtech) in a 96 well plate format.

[4] = biological target: T2, MYC:MAX (MYC-GLuc-C + MAX-GLuc-N) in HEK293 cells (Homo sapiens, UniProt P01106); test: Assay 3C GLuc complementation assay; format: cell-based
T2 construct: expressed in transfected cells; host or cells: HEK293 (also COS-7)
T2 sequence (P01106 whole entry): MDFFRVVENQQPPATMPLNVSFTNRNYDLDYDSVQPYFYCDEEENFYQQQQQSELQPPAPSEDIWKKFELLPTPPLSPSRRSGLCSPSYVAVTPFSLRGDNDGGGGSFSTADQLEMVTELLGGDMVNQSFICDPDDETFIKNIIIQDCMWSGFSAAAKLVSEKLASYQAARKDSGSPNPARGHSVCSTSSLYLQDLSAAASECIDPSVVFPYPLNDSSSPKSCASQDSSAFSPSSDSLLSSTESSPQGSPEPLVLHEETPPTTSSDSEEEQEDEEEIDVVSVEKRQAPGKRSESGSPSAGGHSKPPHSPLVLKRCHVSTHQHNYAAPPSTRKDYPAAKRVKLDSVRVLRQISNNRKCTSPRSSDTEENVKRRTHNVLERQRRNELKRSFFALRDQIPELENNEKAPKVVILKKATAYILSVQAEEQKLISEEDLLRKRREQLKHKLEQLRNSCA
Protocol: as §1
The protein fragment complementation assay using the Gaussia luciferase (GLuc) has been described (Remy, I. & Michnick, S. W. A highly sensitive protein-protein interaction assay based on Gaussia luciferase. Nat Methods 3, 977-979, doi:10.1038/nmeth979 (2006)). […] 24 hours later cells were treated with compound or DMSO. After another 17 hours the cells were harvested and lyzed in passive lysis buffer (Promega) supplemented with complete protease inhibitor (Roche). After 60 min incubation at room temperature 20 μM D-luciferin was added (substrate of Firefly luciferase) and luminescence was measured in a Lumat LB9501 (Berthold) or OmegaFluostar (BMG Labtech) luminometer. Directly after, the Gaussia luciferase substrate Coelenterazine (Promega) was added to a final concentration of 20 μM and the luciferase activity was measured. The ratio between Gaussia and Firefly luciferase values were calculated and normalized to DMSO-treated control cells.

[5] = biological target: T3, MYCbHLHZip (Homo sapiens, UniProt P01106); test: Assay 2A MYC binding MST assay; conditions: approximately 200 nM labelled MYC, compound titrated
T3 construct: An amino coupling procedure was used to immobilize MYCbHLHZip protein on a CM5 sensor chip
T3 sequence (P01106 368-449 limits assumed): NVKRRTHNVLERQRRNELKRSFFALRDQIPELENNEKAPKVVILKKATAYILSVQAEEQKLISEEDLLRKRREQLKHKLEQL
Protocol: FIG. 2: A) MST assay of Example 1 effect on MYC and MAX, respectively. Recombinant MYC bHLHZip and MAX bHLHZip proteins were titrated, respectively, in a fixed concentration (3 μM) of Example 1. Changes in fluorescence were measured and normalized to control (buffer). Data are shown as mean±standard deviation of 6-8 biological repeats. B) MST assay of MYC (reverse MST). A fixed concentration of 200 nM labeled MYC was mixed with different concentrations of Example 1 as indicated. Data are shown as mean±standard deviation of 5 biological repeats. C) MST assay of Example 2 effect on MYC. D) MST assay of MYC with a control compound (non-binder).
Assay 2A. MYC Binding MST Assay
The MYC MST assay was performed as described above (Biological example 1—Assay 1A), except that the fluorescent molecule was either protein or Example 1. The example compound was kept at a fix concentration of 3 μM in PBS supplemented with 0.05% Tween-20, while MYCbHLHZip or MAX was titrated. The migration of example compound changed at MYC protein concentrations above 1 μM, but was unaffected with MAX up to highest concentration tested (15 μM) (FIG. 2A). […]

T1 sequence (P01106 whole entry): as the sequence (P01106 whole entry) above

reduction of MYC:MAX protein interaction vs DMSO treated cells (CoIP) ([1]; 5 μM, 3.5 hours): More than Half
inhibition at 5 µM ([1]; MDA-MB-231, read-out: CoIP inhibition at 10 μM): > 70%
GI50 ([3]; Homo sapiens, SK-N-AS, 48 h, first run): > 20 µM
GI50 ([3]; Homo sapiens, SK-N-AS, second run): > 25 µM
GI50 ([3]; first run, 48 hours, sulphate hydrate): > 25 µM
inhibition at 10 µM ([4]; HEK293): 50%
IC50 ([4]; exogenous MYC:MAX): 10 µM
compound concentration affecting migration of MYC (reverse MST) [5]: 200 to 400 nM
Structure (SMILES): CCOc1ccc2nc3cc(/N=N/c4ccc(N)nc4N)ccc3c(N)c2c1 [Example 1, 3-((9-amino-7-ethoxyacridin-3-yl)diazenyl)pyridine-2,6-diamine sulphate hydrate]
growth of the MYC null cells [2]: did not significantly affect
GI50 ([2]; Rattus norvegicus, Fibroblast, first run): > 10 µM
